Molecules are shown by their SMILES.

Three compounds from publication PMC12527034, “R103 and R115 Affinity Mutants of ATeam ATP Biosensors” (Sensors (Basel, Switzerland), 2025) can be followed below.

For one assay, the system named is HEK293 cells. As to the kind of experiment: Live-cell imaging of metabolic inhibition (sensitized FRET emission ratio). The class given is cell-based. Here is the method:
Microscopy. HEK293 cells were cultured in low-glucose Dulbecco’s modified Eagle’s medium supplemented with 10% cosmic calf serum (Gibco, Thermo Fisher Scientific, Waltham, MA, USA). For imaging studies, cells were plated on 18 mm #1.5 coverslips and transfected with Effectene (Qiagen, Germantown, MD, USA) or by the calcium phosphate method. Prior to imaging, cells were equilibrated for at least 20 min at room temperature in imaging solution (15 mM HEPES, pH 7.3, 1.25 mM NaH2PO4, 130 mM NaCl, 3 mM KCl, 2 mM CaCl2, 1 mM MgCl2, 3 mM NaHCO3) supplemented with a glucose concentration dependent on the specific experiment. Live-cell microscopy was carried out at room temperature on an Olympus IX83 inverted fluorescence microscope with a 20X/0.75 NA air objective illuminated by a Lumencor SpectraX light engine and imaged with an Andor Zyla 4.2 sCMOS camera. An ECFP/EYFP/mCherry multiband beamsplitter (Chroma 69008bs) was used with bandpass excitation and emission filters for each channel: cyan 438/29 nm and 470/24 nm; yellow 510/10 nm and 540/30 nm; sensitized FRET 438/29 nm and 540/30 nm; red 575/25 nm and 631/28 nm. Andor iQ3 software was used for image acquisition, and ImageJ/FIJI was used for image analysis. […] Cell masks were created using a threshold of two times the background and applied to background-subtracted images. […]

Assay [1] has as its target T1, ATeam1.03YEMK R103E/R115A.
T1 construct: YEMK epsilon subunit flanked by mseCFP and mVenus; polyhistidine-tagged
Description: Steady-state FRET ratio ATP dose response of 0.125 uM purified ATeam1.03 or ATeam1.03YEMK sensor at room temperature in 50 mM MOPS-KOH pH 7.3, 50 mM KCl, 0.5 mM free Mg2+, 0.05% Triton-X100 (4 to 9 replicates). It counts as binding. Particulars: SD, n = 4; read-out: ATP Affinity Kapp (ATeam1.03 and ATeam1.03YEMK). The protocol:
(§1) Protein Characterization. […] Samples were measured with n = 4 to 9 replicates.
(§2) Figure 4 All ATeam1.03 R103 and R115 single and double mutants cause loss of ATP affinity. ATP dose responses were measured using purified protein in solution. […] (A) Example fluorescence emission spectra for (A) wildtype ATeam1.03 and (B) the non-binding R103A/R115A double mutant.
(§3) Figure 5 ATeam1.03YEMK R103 and R115 single and double mutants tune ATP affinity. ATP dose responses were measured using purified protein in solution. […] (A) Example fluorescence emission spectra for (A) wildtype ATeam1.03YEMK, (B) the R103A/R115A double mutant, and (C) the R103A/R115E double mutant. ATP dose response curves for (D) single and (E) double mutants. Apparent dissociation constants are summarized in (F).

In the next assay the target is T2, ATeam1.03YEMK R115A (Bacillus subtilis, UniProt P37812, G131E/INS132K/K132M/M60Y/R115A).
T2 construct: gene atpC; YEMK epsilon subunit flanked by mseCFP and mVenus; polyhistidine-tagged
T2 sequence (P37812 whole entry, stated change not applied): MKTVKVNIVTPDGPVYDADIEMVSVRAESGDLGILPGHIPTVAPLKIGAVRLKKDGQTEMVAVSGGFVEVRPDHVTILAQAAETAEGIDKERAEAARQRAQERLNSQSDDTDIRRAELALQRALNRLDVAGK
The description is as above. The class given is binding. Particulars: SD, n = 4; read-out: ATP Affinity Kapp (ATeam1.03 and ATeam1.03YEMK). The protocol: as §1, §2, §3

Another assay deals with T3, ATeam1.03YEMK (WT) (Bacillus subtilis, UniProt P37812, G131E/INS132K/K132M/M60Y).
T3 construct: gene atpC; epsilon subunit with four interface residues exchanged to match Bacillus sp; PS3, flanked by mseCFP and mVenus; polyhistidine-tagged
T3 sequence (P37812 whole entry, stated change not applied): as above
The assay is described as above. The class given is binding. As to conditions: SD, n = 4; read-out: ATP Affinity Kapp (ATeam1.03 and ATeam1.03YEMK). The protocol: as §1, §2, §3

Assay [2] addresses T4, ATeam1.03YEMK R103E/R115E.
T4 construct: YEMK epsilon subunit flanked by mseCFP and mVenus; polyhistidine-tagged
Described as above. The class given is binding. Particulars: SD, n = 4; read-out: ATP Affinity Kapp (ATeam1.03 and ATeam1.03YEMK). The protocol: as §1, §2, §3

The target in the next assay is T5, ATeam1.03 (WT) (Bacillus subtilis, UniProt P37812).
T5 construct: gene atpC; epsilon subunit flanked by mseCFP and mVenus; polyhistidine-tagged, expressed in E. coli BL21(DE3)
T5 sequence (P37812 whole entry): as the sequence (P37812 whole entry, stated change not applied) above
The description is as above. Particulars: SD, n = 4; read-out: ATP Affinity Kapp (ATeam1.03 and ATeam1.03YEMK). It counts as binding. Here is the method: as §1, §2, §3

The target in assay [3] is T6, ATeam1.03YEMK R103A/R115E.
T6 construct: YEMK epsilon subunit flanked by mseCFP and mVenus; polyhistidine-tagged
The assay is described as above. It counts as binding. Particulars: SD, n = 4; read-out: ATP Affinity Kapp (ATeam1.03 and ATeam1.03YEMK). The protocol: as §1, §2, §3

The target in a further assay is T7, ATeam1.03YEMK R115E (Bacillus subtilis, UniProt P37812, G131E/INS132K/K132M/M60Y/R115E).
T7 construct: gene atpC; YEMK epsilon subunit flanked by mseCFP and mVenus; polyhistidine-tagged
T7 sequence (P37812 whole entry, stated change not applied): as above
The description is as above. It counts as binding. Particulars: SD, n = 4; read-out: ATP Affinity Kapp (ATeam1.03 and ATeam1.03YEMK). Here is the method:
as §1, §2, §3

In assay [4] the target is T8, ATeam3.10 R103E/R115E (Bacillus sp. PS3, UniProt A0A0M5MQR7, R103E/R115E). Description: Steady-state FRET ratio ATP dose response of 0.125 uM purified ATeam3.10 sensor at room temperature in 50 mM MOPS-KOH pH 7.3, 50 mM KCl, 0.5 mM free Mg2+, 0.05% Triton-X100 (4 to 9 replicates). It counts as binding. As to conditions: SD, n = 4; read-out: ATP Affinity Kapp. Further details: gene uncC; epsilon subunit flanked by mseCFP and mVenus; polyhistidine-tagged. Here is the method:
as §1
(§4) We measured the ATP dose–response curves for all combinations of single and double mutants consisting of R-to-A charge neutralization or R-to-E charge reversal (Table 1, Figure 2). […] The difference between our observations likely reflects the sensitivity of the ε subunit to the label used. Kato-Yamada used a relatively small Cy3 label with a cysteine mutant (Q107C) of the ε subunit, whereas the ε subunit is fused to two large fluorescent proteins in ATeam3.10. Despite this difference, the increase in affinity could still be of particular use for developing an ATeam-based sensor to detect the low levels of extracellular ATP [2, 3, 11, 13, 25].
(§5) Figure 2 ATeam3.10 R103 and R115 single and double mutants tune ATP affinity. ATP dose responses were measured using purified protein in solution. […] Apparent dissociation constants are summarized in (E).

In assay [5] the target is T9, ATeam3.10 R115E (Bacillus sp. PS3, UniProt A0A0M5MQR7, R115E).
T9 construct: gene uncC; epsilon subunit flanked by mseCFP and mVenus; polyhistidine-tagged
T9 sequence (A0A0M5MQR7 entry or part of it R115E): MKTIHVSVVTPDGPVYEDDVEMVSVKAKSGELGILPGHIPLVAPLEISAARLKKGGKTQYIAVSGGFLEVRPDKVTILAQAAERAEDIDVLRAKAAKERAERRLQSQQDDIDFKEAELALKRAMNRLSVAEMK
Described as above. Particulars: SD, n = 4; read-out: ATP Affinity Kapp. The class given is binding. Here is the method:
as §1, §4, §5

Assay [6] concerns the target T10, ATeam3.10 R103A/R115E (Bacillus sp. PS3, UniProt A0A0M5MQR7, R103A/R115E).
T10 construct: gene uncC; epsilon subunit flanked by mseCFP and mVenus; polyhistidine-tagged
The description is as above. It counts as binding. Particulars: SD, n = 4; read-out: ATP Affinity Kapp. The protocol: as §1, §4, §5

In assay [7] the target is T11, ATeam3.10 R103A/R115A (Bacillus sp. PS3, UniProt A0A0M5MQR7, R103A/R115A).
T11 construct: gene uncC; epsilon subunit flanked by mseCFP and mVenus; polyhistidine-tagged
T11 sequence (A0A0M5MQR7 entry or part of it R103A/R115A): as the sequence (A0A0M5MQR7 entry or part of it R115E) above, with R103A, E115A counted along it
Described as above. It counts as binding. Particulars: SD, n = 4; read-out: ATP Affinity Kapp. The protocol: as §1, §4, §5

For assay [8], the target named is T12, ATeam3.10 (WT) (Bacillus sp. PS3, UniProt A0A0M5MQR7).
T12 construct: gene uncC; epsilon subunit flanked by mseCFP and mVenus; polyhistidine-tagged, expressed in E. coli BL21(DE3)
T12 sequence (A0A0M5MQR7 1-133): as the sequence (A0A0M5MQR7 entry or part of it R115E) above, with E115R counted along it
The description is as above. The class given is binding. As to conditions: SD, n = 4; read-out: ATP Affinity Kapp. The protocol: as §1, §4, §5

Assay [9] has as its target T13, ATeam3.10 R103E (Bacillus sp. PS3, UniProt A0A0M5MQR7, R103E).
T13 construct: gene uncC; epsilon subunit flanked by mseCFP and mVenus; polyhistidine-tagged
The assay is described as above. It counts as binding. As to conditions: SD, n = 4; read-out: ATP Affinity Kapp. Here is the method: as §1, §4, §5

Assay [10] concerns the target T14, ATeam3.10 R103A (Bacillus sp. PS3, UniProt A0A0M5MQR7, R103A).
T14 construct: gene uncC; epsilon subunit flanked by mseCFP and mVenus; polyhistidine-tagged
The description is as above. As to conditions: SD, n = 4; read-out: ATP Affinity Kapp. The class given is binding. The protocol: as §1, §4, §5

The target of assay [11] is T15, ATeam3.10 R103E/R115A (Bacillus sp. PS3, UniProt A0A0M5MQR7, R103E/R115A).
T15 construct: gene uncC; epsilon subunit flanked by mseCFP and mVenus; polyhistidine-tagged
T15 sequence (A0A0M5MQR7 entry or part of it R103E/R115A): as the sequence (A0A0M5MQR7 entry or part of it R115E) above, with R103E, E115A counted along it
Described as above. The class given is binding. As to conditions: SD, n = 4; read-out: ATP Affinity Kapp. Here is the method:
as §1, §4, §5

For assay [12], the target named is T16, ATeam3.10 R115A (Bacillus sp. PS3, UniProt A0A0M5MQR7, R115A).
T16 construct: gene uncC; epsilon subunit flanked by mseCFP and mVenus; polyhistidine-tagged
T16 sequence (A0A0M5MQR7 entry or part of it R115A): as the sequence (A0A0M5MQR7 entry or part of it R115E) above, with E115A counted along it
The assay is described as above. Particulars: SD, n = 4; read-out: ATP Affinity Kapp. It counts as binding. Here is the method:
as §1, §4, §5

Assay [13] addresses T9, ATeam3.10 R115E. As to the kind of experiment: Steady-state FRET ratio ADP dose response of 0.125 uM purified ATeam3.10 sensor at room temperature in 50 mM MOPS-KOH pH 7.3, 50 mM KCl, 0.5 mM MgCl2, 0.05% Triton-X100 (4 to 9 replicates). As to conditions: n = 4. The class given is binding. The protocol:
as §1
(§6) Apparent dissociation constants are summarized in (E).

Assay [14] has as its target T10, ATeam3.10 R103A/R115E. Described as above. As to conditions: n = 4. The class given is binding. Here is the method:
as §1, §6

For assay [15], the target named is T11, ATeam3.10 R103A/R115A. The description is as above. The class given is binding. As to conditions: n = 4. The protocol:
as §1, §6

Assay [16] concerns the target T12, ATeam3.10 (WT). Described as above. It counts as binding. As to conditions: n = 4; read-out: ADP Affinity Kapp. Here is the method:
as §1, §6

The target of assay [17] is T13, ATeam3.10 R103E. The assay is described as above. The class given is binding. Particulars: n = 4. The protocol: as §1, §6
Assay [18] concerns the target T14, ATeam3.10 R103A. The description is as above. Particulars: n = 4. It counts as binding. The protocol: as §1, §6
The target in assay [19] is T15, ATeam3.10 R103E/R115A. The description is as above. It counts as binding. Particulars: n = 4. Here is the method:
as §1, §6

Assay [20] addresses T16, ATeam3.10 R115A. Described as above. It counts as binding. Particulars: n = 4. The protocol: as §1, §6
The target of assay [21] is T8, ATeam3.10 R103E/R115E. Description: biochemical. Further details: gene uncC. Particulars: n = 4.
Description: Assays were carried out at room temperature with 0.125 µM protein in assay buffer (50 mM MOPS-KOH, pH 7.3, 50 mM KCl, 0.5 mM MgCl2, 0.05% Triton-X100). ATP stocks were neutralized to pH 7, and a total MgCl2 concentration was added to maintain 0.5 mM free Mg^2+ [21]. Samples were prepared in clear-bottom, black 96-well plates (Greiner Bio-One, Monroe, NC, USA). Sensor protein and ATP at a concentration dictated by each point on the dose–response curve were added to a single well with assay buffer and allowed to equilibrate. Samples were measured with n = 4 to 9 replicates. Steady-state fluorescence was measured on a BioTek Synergy H4 using 420/50 nm excitation and 485/20 nm or 528/20 nm emission bandpass filters (BioTek, Winooski, VT, USA). Donor fluorescence lifetimes were measured using an Edinburgh Instruments FS5+ time-resolved fluorometer with an NKT-Fianium WhiteLaseMicro supercontinuum pulsed laser (Edinburgh Instruments, Livingston, UK). Donor fluorescence lifetime distribution analysis was carried out using the MemExp software [22, 23, 24].
ADP dose responses were measured using purified protein in solution. FRET ratios were calculated as sensitized acceptor emission-to-donor emission ratios. […] ADP dose response curves for (C) single and (D) double mutants.

T8 sequence (A0A0M5MQR7 entry or part of it R103E/R115E): as the sequence (A0A0M5MQR7 entry or part of it R115E) above, with R103E counted along it
T14 sequence (A0A0M5MQR7 entry or part of it R103A): as the sequence (A0A0M5MQR7 entry or part of it R115E) above, with R103A, E115R counted along it
T10 sequence (A0A0M5MQR7 entry or part of it R103A/R115E): as the sequence (A0A0M5MQR7 entry or part of it R115E) above, with R103A counted along it
T13 sequence (A0A0M5MQR7 entry or part of it R103E): as the sequence (A0A0M5MQR7 entry or part of it R115E) above, with R103E, E115R counted along it

For the compound `O=CC[C@@H](O)[C@H](O)[C@H](O)CO` [DG, 2-deoxyglucose], the “effect on cytosolic ATP” value in the assay with HEK293 cells (HEK293, 10 mM glucose) is given as “did not cause a drastic loss of ATP”; with HEK293 cells (HEK293, absence of glucose) it was “did cause ATP depletion”.
Consider `Nc1ncnc2c1ncn2[C@@H]1O[C@H](COP(=O)(O)OP(=O)(O)OP(=O)(O)O)[C@@H](O)[C@H]1O` [ATP, Adenosine triphosphate], for which the Kd in assay [1] was found to be 1900 µM; on ATeam1.03YEMK R115A, 1800 µM; at ATeam1.03YEMK (WT), 200 µM; in assay [2] it was 2200 µM; at ATeam1.03 (WT), 1000 µM; in assay [3] it was 1900 µM. Moreover, the Kd on ATeam1.03YEMK R115E amounted to 700 µM; on ATeam3.10 R103E/R115E [4] it was 0.8 µM; on ATeam3.10 R115E [5] it was 0.3 µM; at ATeam3.10 R103A/R115E [6] it was 0.2 µM; at ATeam3.10 R103A/R115A [7], 0.2 µM; on ATeam3.10 (WT) [8], 0.8 µM. Moreover, the Kd was 0.6 µM at ATeam3.10 R103E [9], 0.8 µM at ATeam3.10 R103A [10], 0.7 µM at ATeam3.10 R103E/R115A [11] and 0.6 µM at ATeam3.10 R115A [12].
Consider `Nc1ncnc2c1ncn2[C@@H]1O[C@H](COP(=O)(O)OP(=O)(O)O)[C@@H](O)[C@H]1O` [ADP, Adenosine diphosphate], for which the Kd on ATeam3.10 R115E [13] stood at 29 ± 2 µM; on ATeam3.10 R103A/R115E [14], 17 ± 1 µM; at ATeam3.10 R103A/R115A [15], 32 ± 5 µM; on ATeam3.10 (WT) [16] it was 130 ± 10 µM; at ATeam3.10 R103E [17], 68 ± 3 µM; on ATeam3.10 R103A [18] it was 82 ± 6 µM. In addition, the Kd on ATeam3.10 R103E/R115A [19] amounted to 40 ± 2 µM; on ATeam3.10 R115A [20], 74 ± 7 µM; on ATeam3.10 R103E/R115E [21], 51 ± 6 µM.
